Laboratory results taken from publication PMC9555310, “Novel inhibitors and activity-based probes targeting serine proteases” (Frontiers in Chemistry, 2022).

What was measured:
[1] = molecular target: T1, elastase-like proteases (NE) in CF Sol samples (Homo sapiens, UniProt P08246); experiment: Activity-based profiling of CF Sol samples (SDS-PAGE, streptavidin-HRP western blot); format: binding; settings: 50 μM, 30 min, 37°C; band ∼29 kDa
T1 construct: from tissue; host or cells: Cystic Fibrosis (CF) Sol samples 26w and 41w from patients
T1 sequence (P08246 30-247 limits assumed): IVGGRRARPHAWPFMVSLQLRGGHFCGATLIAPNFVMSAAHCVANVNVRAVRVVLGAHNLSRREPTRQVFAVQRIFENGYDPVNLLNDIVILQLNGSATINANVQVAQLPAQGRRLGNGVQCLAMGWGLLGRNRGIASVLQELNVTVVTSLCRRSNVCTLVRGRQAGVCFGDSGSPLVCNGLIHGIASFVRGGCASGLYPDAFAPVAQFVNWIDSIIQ
Procedure: (§1) Samples of recombinant protease (trypsin, plasmin, thrombin, chymotrypsin, or HNE, as indicated in the relevant figure legends) were treated with each of the newly synthesized compounds at a concentration of 50 μM, for 30 min, at 37°C. A control sample (no ABP) was prepared by treating the recombinant protease with solvent vehicle (DMF) only, used to prepare the stock solution of each ABP. Samples were also pre-treated (±90°C for 30 min) before being incubated with each putative ABP. With trypsin and thrombin, further samples were prepared where Z-Arg^P-(OPh)2 or NAP559, respectively, was added 30 min prior to the addition of the ABP under examination. All treated samples were then denatured with SDS containing reducing treatment buffer (10 min at 95°C), followed by resolution by SDS-PAGE and subjected to Western blotting. Resolved proteins were then transferred onto the nitrocellulose membrane and labeled with streptavidin-HRP. The ABP–protease complex was then visualized following treatment with Luminata Forte HRP substrate.
FIGURE 7 Activity Based Profiling of serine proteases by peptide N-Alkyl glycine carbamates. […] CF Sol (sample 26w) was used at a final concentration of 2.5% (v/v), and the level of NE contained therein was measured using Succinyl-Ala-Ala-Pro-Val-NHMec (50 μM), in the absence (-- o --) and presence (-- o --) of NAP800 (50 μM). […]

[2] = molecular target: T2, thrombin (Homo sapiens, UniProt P00734); experiment: Activity-based profiling of thrombin (SDS-PAGE, streptavidin-HRP western blot); format: binding; settings: pre-treatment 30 min, 37°C
T2 construct: apparent molecular mass of 31 kDa, corresponding to the heavy (catalytic) chain of the protease; purchased R&D Systems
Procedure: as §1
FIGURE 8 Activity Based Profiling of Trypsin-like serine proteases. (A) trypsin was treated (±) with NAP830, for 30 min, at 37°C (± pretreatment with Z-Arg^P-(OPh)2). (B) thrombin (1 […]) was pre-treated with various concentrations of NAP559 (30 min, at 37°C) followed by treatment (±) with NAP858 for 30 min, at 37°C. (C) Plasmin was treated in turn with QUBTL1, NAP962 and NAP830, (± pre-heat inactivation at 95°C, for 10 min) for 30 min, at 37°C. […]
Following transfer, the extra protein binding sites on the membrane were blocked by addition of 3% (w/v) BSA in TBST (20 mM Tris, 137 mM NaCl, 1% (v/v) Tween 20, pH 7.6) and agitated gently at room temperature for 30 minutes. The biotin-labelled proteases were then detected by addition of Streptavidin-HRP (Vector Laboratories) in 3% (w/v) BSA in TBST at a concentration of 1:20000, for 1 hour at room temperature. […]

Row | effect of pre-treatment of thrombin on 31 kDa band disclosed by NAP858 ([2]; 10 and 50 μM) | SMILES | labelling of elastase-like proteases in CF Sol (western blot) [1] | effect of pre-treatment of thrombin on 31 kDa band disclosed by NAP858 ([2]; 1 μM)
1 | – | CC(C)N(CC(=O)NCC(=O)NCC(=O)NCCCOCCOCCOCCCNC(=O)CCCCC1SCC2NC(=O)NC21)C(=O)ON1C(=O)CCC1=O (stereo not drawn) [NAP800, Succinimidoyl-CO-NVal-Gly-Gly-PEG-Biotin] | detection of a diffuse band in two CF Sol samples (26w and 41w) | –
2 | almost completely extinguished | N=C(N)NCCCN(CC(=O)N1CCC[C@H]1C(=O)N(CC(N)=O)Cc1ccccc1)C(=O)ON1C(=O)CCC1=O [NAP559, Succinimidoyl-CO-NArg-D-Pro-NPhe-NH2] | – | slight but a discernible diminution in the intensity of the band
